We go through 16 molecules from US12415803B2, “Fused imidazopyridines as reversible inhibitors of Brutons Tyrosine Kinase (BTK)” (Merck Patent GmbH, priority 2018, dated 2025).

Bounds are passed on as bounds.

For assay [1], the target named is full-length human BTK (Homo sapiens (Human), UniProt Q06187). Kind of assay: BTK IC50 Enzyme Assay (microfluidic off-chip mobility shift kinase assay).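 Also: Read-out separates phosphorylated peptide product from substrate by their charge-to-mass difference, with IC50 fitted from log inhibitor concentration against percent enzyme activity.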 In kind it is biochemical. The note with it: Btk Enzymatic IC50 Assay, 90 min at 27 C.
Assay [2] concerns the target T1, Btk (Homo sapiens (Human), UniProt Q06187). Kind of assay: Btk PBMC IC50 Cell Assay (anti-IgM-induced CD69 expression on B cells).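 Also: freshly isolated human PBMCs, IC50 from concentration-response of the share of CD19+ cells expressing CD69 after anti-IgM BCR stimulation.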 In kind it is cell-based. To be noted: anti-IgM-induced CD69 expression on CD19 positive cells in human PBMCs.
Assay [3] deals with T1, Btk. Kind of assay: Time Dependent Human Whole Blood IC50 Assay. It is filed as cell-based. The note with it: read-out: Assay C (IC50).

Sequence of full-length human BTK (Q06187 whole entry): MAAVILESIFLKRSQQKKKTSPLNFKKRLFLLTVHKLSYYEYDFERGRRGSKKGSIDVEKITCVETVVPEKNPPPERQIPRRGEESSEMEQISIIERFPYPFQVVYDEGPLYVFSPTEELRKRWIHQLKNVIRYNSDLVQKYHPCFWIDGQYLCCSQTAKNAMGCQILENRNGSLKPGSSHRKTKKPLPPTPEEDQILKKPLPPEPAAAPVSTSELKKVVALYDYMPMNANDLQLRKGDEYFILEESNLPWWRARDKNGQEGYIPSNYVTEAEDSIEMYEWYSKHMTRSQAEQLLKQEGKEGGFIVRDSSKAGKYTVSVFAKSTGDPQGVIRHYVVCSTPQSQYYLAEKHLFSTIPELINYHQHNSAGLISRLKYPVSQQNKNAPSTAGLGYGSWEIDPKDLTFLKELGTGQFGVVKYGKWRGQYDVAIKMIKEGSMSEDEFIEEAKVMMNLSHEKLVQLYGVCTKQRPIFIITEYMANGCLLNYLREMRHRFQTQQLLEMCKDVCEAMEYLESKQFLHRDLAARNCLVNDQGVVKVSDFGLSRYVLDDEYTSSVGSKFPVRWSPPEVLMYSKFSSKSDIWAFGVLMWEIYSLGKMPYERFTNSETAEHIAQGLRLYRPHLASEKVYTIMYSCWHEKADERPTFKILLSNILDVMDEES
T1 sequence (Q06187 whole entry): as above

Usually IC50 stands for the concentration that gives 50% inhibition. With `Cc1nn(C)c(C)c1-c1nc2c(-c3ccc4c(c3)CCCCC4NC(=O)c3cc(C(C)(C)C)on3)ccnc2[nH]1` (stereo not drawn) [Compound 70], the IC50 was in the range of 1 to 10 nM in assay [1], 1 to 10 nM in assay [2] and 10 to 100 nM in assay [3].

As to `CC(C)(C)c1noc(C(=O)NC2CCCCc3cc(-c4ccnc5[nH]c(-c6cnn(C7CC7)c6)nc45)ccc32)n1` (stereo not drawn) [Compound 83, 3-tert-butyl-N-{2-[2-(1-cyclopropyl-1H-pyrazol-4-yl)-3H-imidazo[4,5-b]pyridin-7-yl]-6,7,8,9-tetrahydro-5H-benzo[7]annulen-5-yl}-1,2,4-oxadiazole-5-carboxamide], the IC50 is under 1 nM in assay [1], 1 to 10 nM in assay [2] and 1 to 10 nM in assay [3].

With `Cc1c(-c2nc3c(-c4ccc5c(c4)CCC[C@@H]5NC(=O)c4noc(C(C)(C)C)n4)ccnc3[nH]2)cnn1C1CCOCC1` [Compound 157, 5-tert-Butyl-[1,2,4]oxadiazole-3-carboxylic acid ((S)-6-{2-[5-methyl-1-(tetrahydro-pyran-4-yl)-1H-pyrazol-4-yl]-3H-imidazo[4,5-b]pyridin-7-yl}-1,2,3,4-tetrahydro-naphthalen-1-yl)-amide], the IC50 in assay [1] was under 1 nM; in assay [2] it was 1 to 10 nM; in assay [3], 1 to 10 nM.

Take `Cc1c(-c2nc3c(-c4ccc5c(c4)CCCC[C@H]5NC(=O)c4nc(C(C)(C)C)no4)ccnc3[nH]2)cnn1C(C)C` [Compound 160, 3-tert-Butyl-[1,2,4]oxadiazole-5-carboxylic acid {(R)-2-[2-(1-isopropyl-5-methyl-1H-pyrazol-4-yl)-3H-imidazo[4,5-b]pyridin-7-yl]-6,7,8,9-tetrahydro-5H-benzocyclohepten-5-yl}-amide]: the IC50 was under 1 nM in assay [1], 1 to 10 nM in assay [2] and 1 to 10 nM in assay [3].

For `CC(C)n1cc(-c2nc3c(-c4ccc5c(c4)CCCC[C@H]5NC(=O)c4cc(C(C)(C)C)on4)ccnc3[nH]2)cn1` [Compound 92], the IC50 in assay [1] is under 1 nM; in assay [2] it was 1 to 10 nM; in assay [3], 10 to 100 nM.

Take `Cc1nn(C)c(C)c1-c1nc2c(-c3ccc4c(c3)CCCC[C@H]4NC(=O)c3nc(C(C)(C)C)no3)ccnc2[nH]1` [Compound 142, 3-tert-Butyl-[1,2,4]oxadiazole-5-carboxylic acid {(R)-2-[2-(1,3,5-trimethyl-1H-pyrazol-4-yl)-3H-imidazo[4,5-b]pyridin-7-yl]-6,7,8,9-tetrahydro-5H-benzocyclohepten-5-yl}-amide]: the values for the IC50 in assay [1], in assay [2] and in assay [3] were under 1 nM, 1 to 10 nM and 1 to 10 nM, respectively.

Turning to `Cc1nn(C(C)C)c(C)c1-c1nc2c(-c3ccc4c(c3)CCCC[C@H]4NC(=O)c3noc(C4(C)CC4)n3)ccnc2[nH]1` [Compound 33, 5-(1-Methyl-cyclopropyl)-[1,2,4]oxadiazole-3-carboxylic acid {(R)-2-[2-(1-isopropyl-3,5-dimethyl-1H-pyrazol-4-yl)-3H-imidazo[4,5-b]pyridin-7-yl]-6,7,8,9-tetrahydro-5H-benzocyclohepten-5-yl}-amide], the IC50 in assay [1] is under 1 nM; in assay [2], 1 to 10 nM; in assay [3], 1 to 10 nM.

Take `Cc1c(-c2nc3c(-c4ccc5c(c4)CCC[C@H]5NC(=O)c4noc(C(C)(C)C)n4)ccnc3[nH]2)cnn1C(C)C` [Compound 164, 5-tert-Butyl-[1,2,4]oxadiazole-3-carboxylic acid {(R)-6-[2-(1-isopropyl-5-methyl-1H-pyrazol-4-yl)-3H-imidazo[4,5-b]pyridin-7-yl]-1,2,3,4-tetrahydro-naphthalen-1-yl}-amide]: the IC50 in assay [1] was 1 to 10 nM; in assay [2] it was 1 to 10 nM; in assay [3] it was over 100 nM.

In the case of `Cc1cc(-c2nc3c(-c4ccc5c(c4)CCCCC5NC(=O)c4nnc(C(C)(C)C)o4)ccnc3[nH]2)nn1C` (stereo not drawn) [Compound 3, 5-tert-butyl-N-[2-[2-(1,5-dimethyl-1H-pyrazol-3-yl)-3H-imidazo[4,5-b]pyridin-7-yl]-6,7,8,9-tetrahydro-5H-benzo[7]annulen-5-yl]-1,3,4-oxadiazole-2-carboxamide], the IC50 is under 1 nM in assay [1], 1 to 10 nM in assay [2] and 1 to 10 nM in assay [3].

Regarding `Cc1nn(C(C)C)cc1-c1nc2c(-c3ccc4c(c3)CCCCC4NC(=O)c3nc(C(C)(C)C)no3)ccnc2[nH]1` (stereo not drawn) [Compound 132, 3-tert-Butyl-[1,2,4]oxadiazole-5-carboxylic acid {2-[2-(1-isopropyl-3-methyl-1H-pyrazol-4-yl)-3H-imidazo[4,5-b]pyridin-7-yl]-6,7,8,9-tetrahydro-5H-benzocyclohepten-5-yl}-amide], the half-maximal inhibitory concentration (IC50) in assay [1], in assay [2] and in assay [3] was 1 to 10 nM throughout.

As for `Cc1nn(C)c(C)c1-c1nc2c(-c3ccc4c(c3)CCCCC4NC(=O)c3noc(C4(C)CC4)n3)ccnc2[nH]1` (stereo not drawn) [Compound 11, 5-(1-Methyl-cyclopropyl)-[1,2,4]oxadiazole-3-carboxylic acid {2-[2-(1,3,5-trimethyl-1H-pyrazol-4-yl)-3H-imidazo[4,5-b]pyridin-7-yl]-6,7,8,9-tetrahydro-5H-benzocyclohepten-5-yl}-amide], the IC50 in assay [1] was under 1 nM; in assay [2], 1 to 10 nM; in assay [3] it was 10 to 100 nM.

Consider `Cc1nn(C(C)C)cc1-c1nc2c(-c3ccc4c(c3)CCCCC4NC(=O)c3nc(C4(C)CC4)no3)ccnc2[nH]1` (stereo not drawn) [Compound 134, 3-(1-Methyl-cyclopropyl)-[1,2,4]oxadiazole-5-carboxylic acid {2-[2-(1-isopropyl-3-methyl-1H-pyrazol-4-yl)-3H-imidazo[4,5-b]pyridin-7-yl]-6,7,8,9-tetrahydro-5H-benzocyclohepten-5-yl}-amide], for which the half-inhibitory concentration (IC50) was under 1 nM in assay [1], 1 to 10 nM in assay [2] and 1 to 10 nM in assay [3].

With `Cc1c(-c2nc3c(-c4ccc5c(c4)CCCCC5NC(=O)c4nnc(C(C)(C)C)o4)ccnc3[nH]2)cnn1C1CCOCC1` (stereo not drawn) [Compound 120, 5-tert-Butyl-[1,3,4]oxadiazole-2-carboxylic acid (2-{2-[5-methyl-1-(tetrahydro-pyran-4-yl)-1H-pyrazol-4-yl]-3H-imidazo[4,5-b]pyridin-7-yl}-6,7,8,9-tetrahydro-5H-benzocyclohepten-5-yl)-amide], the figures for the IC50 in assay [1], in assay [2] and in assay [3] were under 1 nM, 1 to 10 nM and 1 to 10 nM, respectively.

Turning to `CCc1cc(-c2nc3c(-c4ccc5c(c4)CCCCC5NC(=O)c4nc(C(C)(C)C)no4)ccnc3[nH]2)nn1C` (stereo not drawn) [Compound 133, 3-tert-Butyl-[1,2,4]oxadiazole-5-carboxylic acid {2-[2-(5-ethyl-1-methyl-1H-pyrazol-3-yl)-3H-imidazo[4,5-b]pyridin-7-yl]-6,7,8,9-tetrahydro-5H-benzocyclohepten-5-yl}-amide], the values for the IC50 in assay [1], in assay [2] and in assay [3] were under 1 nM, 1 to 10 nM and 1 to 10 nM, respectively.

As for `Cc1cc(-c2nc3c(-c4ccc5c(c4)CCCC5NC(=O)c4nc(C(C)(C)C)no4)ccnc3[nH]2)nn1C` (stereo not drawn) [Compound 107, 3-tert-Butyl-[1,2,4]oxadiazole-5-carboxylic acid {6-[2-(1,5-dimethyl-1H-pyrazol-3-yl)-3H-imidazo[4,5-b]pyridin-7-yl]-1,2,3,4-tetrahydro-naphthalen-1-yl}-amide], the IC50 in assay [1] was under 1 nM; in assay [2], 10 to 100 nM; in assay [3] it was 10 to 100 nM.

For `Cc1nn(C)c(C)c1-c1nc2nccc(-c3ccc4c(c3)CCCC[C@H]4NC(=O)c3cc(C(C)(C)C)on3)c2[nH]1` [Compound 72], the IC50 in assay [1] was under 1 nM; in assay [2], 1 to 10 nM; in assay [3], 10 to 100 nM.
